Measured values published in article PMC11482831 (bioRxiv, 2024).
Bridge positions count the residues as written; N and C are the ends. Ends that are not written are not given here.

Key:
[1] = cited from earlier work
[2] = system: AMY2R (HiBiT-CTR:mCitrine-RAMP2); assay: CTR:RAMP cell surface proximity BRET assay, AMY2R; format: cell-based, human; settings: 300 nM agonist, HEK293 cells, room temperature, 30 min, pH 7.4
CTR + RAMP3 = molecular target: T1, CTR + RAMP3 (Homo sapiens, UniProt O60896+P30988); assay: cAMP signaling CAMYEL biosensor BRET assay in COS-7 cells, CTR + RAMP3; settings: 30 min, 37°C
T1 sequence (P30988 25-474): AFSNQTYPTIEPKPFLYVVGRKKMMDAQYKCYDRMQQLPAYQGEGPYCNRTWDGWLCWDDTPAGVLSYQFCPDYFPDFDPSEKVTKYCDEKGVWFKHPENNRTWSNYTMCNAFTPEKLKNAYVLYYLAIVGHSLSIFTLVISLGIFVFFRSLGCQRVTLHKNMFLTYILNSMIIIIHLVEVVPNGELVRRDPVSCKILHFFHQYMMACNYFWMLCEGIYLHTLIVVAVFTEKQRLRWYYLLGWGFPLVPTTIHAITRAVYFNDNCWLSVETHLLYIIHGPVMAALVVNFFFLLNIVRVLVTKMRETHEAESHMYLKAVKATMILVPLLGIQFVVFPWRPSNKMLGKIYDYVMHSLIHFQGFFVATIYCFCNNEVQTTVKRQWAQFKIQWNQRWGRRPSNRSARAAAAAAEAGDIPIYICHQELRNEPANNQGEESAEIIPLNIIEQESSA
T1 sequence (O60896 24-148): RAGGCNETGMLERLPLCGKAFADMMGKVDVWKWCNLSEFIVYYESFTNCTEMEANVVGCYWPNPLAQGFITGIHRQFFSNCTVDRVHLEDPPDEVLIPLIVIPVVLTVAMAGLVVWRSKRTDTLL

CTR:R2 (AMY2R) = CTR:R2 (AMY2R) (Homo sapiens, UniProt O60895+P30988); settings: 50 μM SUMO-miniGs, agonist titration
CTR:R1 (AMY1R) = CTR:R1 (AMY1R) (Homo sapiens, UniProt O60894+P30988); assay: Native PAGE agonist titration with excess SUMO-miniGs, AMY1R; settings: 50 μM SUMO-miniGs
CTR + RAMP1 = CTR + RAMP1 (Homo sapiens, UniProt O60894+P30988); assay: cAMP signaling CAMYEL biosensor BRET assay in COS-7 cells, CTR + RAMP1; settings: 30 min, 37°C, vs CTR alone
AMY1R (CTR:RAMP1) = assay: Native PAGE mobility shift assay, single-point, AMY1R; format: biochemical, human; settings: 10 μM agonist, no mGs, detergent-solubilized (LMNG/CHS), in-gel mCitrine fluorescence, qualitative, three replicates
AMY2R (CTR:RAMP2) = assay: Native PAGE mobility shift assay, single-point, AMY2R; format: biochemical, human; settings: 10 μM agonist, no mGs, detergent-solubilized (LMNG/CHS), in-gel mCitrine fluorescence, qualitative, three replicates
[3] = molecular target: T2, AMY3R (HiBiT-CTR:mCitrine-RAMP3) (Homo sapiens, UniProt O60896+P30988); assay: CTR:RAMP cell surface proximity BRET assay, AMY3R; format: cell-based; settings: 300 nM agonist, HEK293 cells, room temperature, 30 min, pH 7.4
T2 sequence (P30988 25-474): T1 sequence (P30988 25-474)

CTR:R3 (AMY3R) = molecular target: T3, CTR:R3 (AMY3R) (Homo sapiens, UniProt O60896+P30988); settings: 50 μM SUMO-miniGs, agonist titration
T3 sequence (P30988 25-474): T1 sequence (P30988 25-474)
T3 sequence (O60896 25-148): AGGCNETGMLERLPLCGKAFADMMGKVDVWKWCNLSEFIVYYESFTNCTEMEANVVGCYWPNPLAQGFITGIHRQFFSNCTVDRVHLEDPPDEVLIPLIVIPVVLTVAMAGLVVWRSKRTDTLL

[4] = molecular target: AMY1R (HiBiT-CTR:mCitrine-RAMP1) (Homo sapiens, UniProt O60894+P30988); assay: CTR:RAMP cell surface proximity BRET assay, AMY1R; format: cell-based; settings: 300 nM agonist, HEK293 cells, room temperature, 30 min, pH 7.4
[5] = molecular target: AMY1R on cells (HiBiT-CTR.25–474 : mCitrine-RAMP1.24–148) (human) (UniProt O60894); assay: FRET or BRET

Sequence of CTR:R1 (AMY1R) (O60894 24-148, one chain of several): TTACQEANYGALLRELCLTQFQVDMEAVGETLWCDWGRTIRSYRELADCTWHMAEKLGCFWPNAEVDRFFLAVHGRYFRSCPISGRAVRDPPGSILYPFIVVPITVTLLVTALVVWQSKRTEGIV
Sequence of AMY1R (HiBiT-CTR:mCitrine-RAMP1) (O60894 24-148, one chain of several): as above
Sequence of human αCGRP (P06881 83-119): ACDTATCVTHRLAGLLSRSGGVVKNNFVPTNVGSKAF
Sequence of CTR + RAMP1 (O60894 27-148, one chain of several): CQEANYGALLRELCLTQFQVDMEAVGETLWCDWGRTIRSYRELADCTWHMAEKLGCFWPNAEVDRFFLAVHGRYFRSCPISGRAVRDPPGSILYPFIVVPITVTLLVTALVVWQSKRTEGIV
Sequence of CTR:R2 (AMY2R) (O60895 55-175, one chain of several): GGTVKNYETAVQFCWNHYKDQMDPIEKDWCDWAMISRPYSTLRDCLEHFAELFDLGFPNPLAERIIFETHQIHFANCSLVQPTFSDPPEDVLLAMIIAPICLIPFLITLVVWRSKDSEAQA

Substance | Change in CTR:RAMP proximity BRET signal, real-time [2] | Effect on CTR-RAMP1 association/dissociation, free RAMP1 (CTR:R1 (AMY1R)) | Change of subunit distribution (free RAMP1 / AMY1R heterodimer) (AMY1R (CTR:RAMP1)) | Change of subunit distribution (AMY2R heterodimer / oligomers) (AMY2R (CTR:RAMP2)) | Change in CTR:RAMP proximity BRET signal, real-time [3] | Subunit dissociation (increase in free RAMP3) (CTR:R3 (AMY3R)) | Change in CTR:RAMP proximity BRET signal, real-time [4] | also measured
cagrilintide (KCNTATCATQRLAEFLRHSSNNFGPILPPTNVGSNTP; chains of the INN, looked up) |  |  |  |  |  |  |  | Weight loss in clinical trials ([1]; ref [9]-[12]): promote substantial weight loss
human calcitonin [hCT] | a brief initial decrease followed by a gradual increase | little or no effect on subunit association/dissociation | did not appreciably change the free RAMP1 | induced formation of a higher order oligomeric species of unknown molecular composition | decreased the BRET signal | promoted AMY3R dissociation | similarly decreased it | Steepness of cAMP concentration-response curve (CTR + RAMP3): steeper than the other curves; Potency change on RAMP3 co-expression, cAMP (CTR + RAMP3; vs CTR alone): decreased hCT potency; Quaternary complex formation (in words) (CTR:R2 (AMY2R)): little if any quaternary complex; Potency change on RAMP1 co-expression, cAMP (CTR + RAMP1): did not change hCT potency; Quaternary complex formation (in words) (CTR:R3 (AMY3R)): little if any quaternary complex
human αCGRP (from UniProt P06881 83-119) (peptide) |  |  |  |  |  |  |  | EC50 [5]: 0.03 µM
pramlintide (KCNTATCATQRLANFLVHSSNNFGPILPPTNVGSNTY-NH2; disulfide 2-7; UniProt P10997 34-70, looked up, variant A25P S28P S29P) |  |  |  |  |  |  |  | Insulin adjunct therapy, glycemic control ([1]; ref [8]): improved glycemic control
rat amylin [rAmylin] |  | decreased free RAMP1 with increasing agonist | reduced free RAMP1 and increased the amount of the AMY1R heterodimer | appeared to increase the amount of AMY2R heterodimer | no effect |  |  | 
salmon calcitonin [sCT] | a brief initial decrease followed by a gradual increase | little or no effect on subunit association/dissociation | did not appreciably change the free RAMP1 | induced formation of a higher order oligomeric species of unknown molecular composition | decreased the BRET signal | promoted AMY3R dissociation | similarly decreased it | 
